The source of these data is patent publication US20160002273A1, “THIENO[3,2-D]PYRIMIDINE-6-CARBOXAMIDES AND ANALOGUES AS SIRTUIN MODULATORS” (GLAXOSMITHKLINE LLC, priority 2013, published 2016).

The target of data set [1] is T1, SIRT1 (Homo sapiens, UniProt Q96EB6).
T1 sequence (Q96EB6 1-747): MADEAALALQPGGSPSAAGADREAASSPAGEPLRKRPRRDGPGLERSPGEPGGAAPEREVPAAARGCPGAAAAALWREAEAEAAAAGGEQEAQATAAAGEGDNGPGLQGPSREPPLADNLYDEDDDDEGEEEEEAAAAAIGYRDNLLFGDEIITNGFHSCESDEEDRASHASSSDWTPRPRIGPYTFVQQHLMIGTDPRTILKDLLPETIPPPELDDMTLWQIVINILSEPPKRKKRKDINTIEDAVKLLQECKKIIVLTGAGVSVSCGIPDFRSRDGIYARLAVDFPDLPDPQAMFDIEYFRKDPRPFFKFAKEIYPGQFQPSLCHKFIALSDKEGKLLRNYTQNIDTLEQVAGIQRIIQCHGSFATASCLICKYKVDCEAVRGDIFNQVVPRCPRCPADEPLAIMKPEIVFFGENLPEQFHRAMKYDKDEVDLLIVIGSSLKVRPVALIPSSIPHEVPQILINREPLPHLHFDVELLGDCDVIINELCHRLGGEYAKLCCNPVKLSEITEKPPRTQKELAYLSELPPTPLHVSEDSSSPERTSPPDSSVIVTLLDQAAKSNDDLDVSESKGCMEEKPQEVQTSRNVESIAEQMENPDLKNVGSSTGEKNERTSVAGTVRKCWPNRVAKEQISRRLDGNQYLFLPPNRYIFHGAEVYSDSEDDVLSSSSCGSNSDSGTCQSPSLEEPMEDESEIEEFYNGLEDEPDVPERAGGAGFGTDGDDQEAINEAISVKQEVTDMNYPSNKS
The conditions noted are these: at 1 mM; Galli et al. (2012); cited from earlier work.

Data set [2] addresses T2, SIRT2 (Homo sapiens, UniProt Q8IXJ6).
T2 sequence (Q8IXJ6 1-389): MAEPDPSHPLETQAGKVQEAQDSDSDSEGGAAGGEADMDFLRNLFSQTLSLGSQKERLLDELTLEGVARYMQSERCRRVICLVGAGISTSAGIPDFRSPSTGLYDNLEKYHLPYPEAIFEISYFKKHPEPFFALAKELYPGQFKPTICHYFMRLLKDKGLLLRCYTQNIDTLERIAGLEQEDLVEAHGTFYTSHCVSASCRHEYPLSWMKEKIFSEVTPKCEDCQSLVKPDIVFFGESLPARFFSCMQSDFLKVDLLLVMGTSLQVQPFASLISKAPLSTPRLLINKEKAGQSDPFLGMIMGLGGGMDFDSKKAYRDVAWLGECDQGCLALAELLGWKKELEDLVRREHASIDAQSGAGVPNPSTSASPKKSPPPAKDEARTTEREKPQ
Particulars: at 1 mM; Galli et al. (2012); cited from earlier work.

Data set [3] concerns sirtuin mediated deacetylation of acetyl-p65. Kind of data set: Acetyl-p65 assay in U2OS cells (AlphaScreen). Particulars: FIG. 6. In kind it is cell-based. As to the method: In certain embodiments, U2OS cells were counted by hemocytometer and diluted to a concentration of 1.5×10^5 cell/ml. BacMam p65 and BacMam p300-HAT viruses were added to the diluted cells at 1% and 1% (vol/vol). 40 μl aliquots of the cell suspensions containing the viruses were plated onto a 384 well plate with a multi-drop dispenser. After 7 hours, a 2-fold serial dilution of Compounds 25, 28 and Compound 4, hereafter referred to as the test compounds, was carried out in DMSO. The test compounds were subsequently diluted with medium (20-fold) in an intermediate compound plate, and 4 μL of each test compound was transferred by a liquid handler from the intermediate plate to a cell plate. 24 hours post viral transduction, the medium in the cell plate was removed by inverting and flicking the plate, and blotting the plate with paper towels. 30 μl of lysis buffer (25 mM HEPES pH 7.4, 0.5% Triton X-100, 1 mg/ml Dextran 500, 0.1% BSA, 300 mM NaCl, 2 mM MgCl2, 1×protease inhibitor cocktail) was added to each well to lyse the cells. After incubation of the cells with lysis buffer for 30 minutes at room temp, 10 μl and 3 μl aliquots of the cell lysates were transferred to assay plates, and the assay plate containing 3 μl aliquot of cell lysates was diluted with an additional 7 μl of lysis buffer to obtain a final volume of 10 μl. Acetyl-p65 and total p65 protein in cell lysates were measured using the AlphaScreen assay format (PerkinElmer). The antibodies used to detect acetyl-p65 protein were biotinylated anti-HA antibody (Roche, 12158167001) and anti-acetylated K310-p65 antibody (Abcam, ab19870). The antibodies used to detect total p65 protein were biotinylated anti-HA antibody (Roche, 12158167001) and anti-p65 antibody (Santa Cruz, sc109). […] After incubating the plates for another 2 hrs in the dark, the plates were read by a PHERAstar microplate reader. […]
On the technique in general: Bead proximity is the source of the signal in Alpha formats.

Data set [4] in a line: HPLC based lipophilicity assay (CHI LogD). In kind it is physicochemical. The conditions noted are these: CHI values by reverse phase HPLC transformed to a LogD scale.
A short description of data set [5]: Kinetic solubility by chemi-luminescent nitrogen detection (CLND). In kind it is physicochemical. The conditions noted are these: aqueous buffer, kinetic from dmso stock, DMSO stock incubated 1 hr in phosphate buffered saline pH 7.4, filtered.
The target of data set [6] is T2, SIRT2. Kind of data set: SIRT2 deacetylation of Trp 5-mer peptide, OAADPr mass spec assay. In kind it is biochemical. Set-up: His-SIRT2(1-389).
For data set [7], the target named is T1, SIRT1. Kind of data set: SIRT1 deacetylation of Trp 5-mer peptide, OAADPr mass spec assay.
Method: (§1) All assays were performed at room temperature in reaction buffer (50 mM HEPES, pH 7.5, 150 mM NaCl, 1 mM DTT, 0.05% BSA). […] To prepare the assays for analysis, 20 μL of reaction volume was mixed in 80 μL of 50:50 acetonitrile:methanol mixture. […] Peak data was integrated using RapidFire Integrator software (Agilent, Santa Clara, Calif.).
The next data set addresses T3, SIRT3 (Homo sapiens, UniProt Q9NTG7).
T3 sequence (Q9NTG7 102-399): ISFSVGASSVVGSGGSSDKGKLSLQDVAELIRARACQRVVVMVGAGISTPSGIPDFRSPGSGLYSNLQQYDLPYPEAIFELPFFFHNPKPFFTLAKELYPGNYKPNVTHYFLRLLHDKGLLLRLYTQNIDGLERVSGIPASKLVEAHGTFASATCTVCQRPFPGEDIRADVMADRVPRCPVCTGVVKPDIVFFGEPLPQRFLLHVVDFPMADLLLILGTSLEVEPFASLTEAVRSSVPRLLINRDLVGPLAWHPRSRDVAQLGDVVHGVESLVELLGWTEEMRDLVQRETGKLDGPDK
Kind of data set: SIRT3 deacetylation of Trp 5-mer peptide, OAADPr mass spec assay.

For a further data set, the system named is SIRT1/2/3. Kind of data set: SIRT1/2/3 biochemical assay, statements spanning all three enzymes. On the set-up: species or system human. Particulars: for SIRT1/2/3 inhibitory activity, in words: across SIRT1, SIRT2 and SIRT3.
Setting [8] is: Trp 5-mer peptide and NAD at KM, mean of at least three determinations, read-out: IC50 (μM) SIRT2.
Setting [9] is: Trp 5-mer peptide, class symbols, read-out: Trp SIRT2_IC50.
Setting [10] is: IC50 (μM) SIRT1, Trp 5-mer peptide and NAD at KM, mean of at least three determinations.
The mark [11] stands for this setting: Trp SIRT1_IC50, Trp 5-mer peptide, class symbols.
The mark [12] stands for this setting: Trp SIRT3_IC50, Trp 5-mer peptide, class symbols.
[13] abbreviates: IC50 (μM) SIRT3, Trp 5-mer peptide and NAD at KM, mean of at least three determinations.
Setting [14] is: Trp SIRT2_IC50, Trp 5-mer peptide, class symbols.
Setting [15] is: read-out: IC50 (μM) SIRT1, Trp 5-mer peptide and NAD at KM, mean of at least three determinations.
[16] abbreviates: read-out: IC50 (μM) SIRT3, Trp 5-mer peptide and NAD at KM, mean of at least three determinations.

Converted amounts (≈) assume the structure as drawn. Like-named read-outs stand apart in the source and are kept apart here.

Method for SIRT3: as §1

Turning to `c1cncc(-c2c[nH]nn2)c1` [3-(1H-1,2,3-triazol-4-yl)pyridine], the SIRT1 activity remaining on SIRT1 [1] is listed as 88%. In addition, the SIRT2 activity remaining at SIRT2 [2] is given as 92%.

For `NC(=O)C1CCCc2c1[nH]c1ccc(Cl)cc21` (centres unmarked) [4, EX-527, EX-527, reference compound], the “inhibition of sirtuin mediated deacetylation of acetyl-p65” value in [3] is reported as “inhibit”.

With `CCNC(=O)c1cccc(C(=O)NCCC2CCN(c3ncnc4cc(C(N)=O)sc34)CC2)c1` [Compound 11a, N^1-(2-(1-(6-carbamoylthieno[3,2-d]pyrimidin-4-yl)piperidin-4-yl)ethyl)-N^3-ethylisophthalamide], the log distribution coefficient (LogD) – broadly, the decadic logarithm of the distribution of all forms, ionised or not, between an organic phase and buffer at a given pH – in data set [4] is 2.09. Also, in data set [5], the solubility (in general, the dissolved amount per volume that the medium holds) at 1 hr was 19 µM (≈ 9.13 µg/mL). The IC50 is 0.005 µM on SIRT2 [6] (setting [8]); less than 1 µM at SIRT2 [6] (setting [9]); 0.014 µM against SIRT1 [7] (setting [10]); less than 1 µM against SIRT1 [7] (setting [11]); 0.001 µM against SIRT3 (SIRT3 IC50, as stated in text); less than 1 µM against SIRT3 (setting [12]).

Take `NC(=O)c1cc2ncnc(Cl)c2s1` [Compound 14, 4-chlorothieno[3,2-d]pyrimidine-6-carboxamide]: the “SIRT1/2/3 inhibitory activity, in words” value with SIRT1/2/3 was “not conserved”. For the same compound, the IC50 is greater than 50 µM on SIRT2 [6] (setting [8]); greater than 10 µM on SIRT2 [6] (setting [9]); greater than 50 µM on SIRT1 [7] (setting [10]); greater than 10 µM at SIRT1 [7] (setting [11]); greater than 50 µM at SIRT3 (setting [13]); greater than 10 µM against SIRT3 (setting [12]).

On to `NC(=O)c1cc2ncnc(N3CCCCC3)c2s1` [Compound 21, 4-(Piperidin-1-yl)thieno[3,2-d]pyrimidine-6-carboxamide], for which, in the data set with SIRT1/2/3, the “SIRT1/2/3 inhibitory activity, in words” value is given as “micromolar levels”. Also, the IC50 is 1.4 µM on SIRT2 [6] (setting [8]); 1 to 10 µM against SIRT2 [6] (setting [14]); greater than 10 µM at SIRT1 [7] (setting [11]); 15 µM at SIRT1 [7] (setting [15]); 1 to 10 µM against SIRT3 (setting [12]); 8.6 µM at SIRT3 (setting [16]).

On to `CCNc1ncnc2cc(C(N)=O)sc12` [Compound 22, 4-(Ethylamino)thieno[3,2-d]pyrimidine-6-carboxamide], for which the “SIRT1/2/3 inhibitory activity, in words” value with SIRT1/2/3 is given as “not conserved”. Besides, the IC50 at SIRT2 [6] (setting [8]) is 49 µM; at SIRT2 [6] (setting [14]), greater than 10 µM; against SIRT1 [7] (setting [10]), greater than 50 µM; at SIRT1 [7] (setting [11]), greater than 10 µM; against SIRT3 (setting [13]), greater than 50 µM; against SIRT3 (setting [12]) it was greater than 10 µM.

For the compound `CC(=S)NCCC1CCN(c2ncnc3cc(C(N)=O)sc23)CC1` [Compound 25, 4-(4-(2-ethanethioamidoethyl)piperidin-1-yl)thieno[3,2-d]pyrimidine-6-carboxamide], the “inhibition of sirtuin mediated deacetylation of acetyl-p65” value in data set [3] was “inhibit”. Further, the IC50 on SIRT2 [6] (setting [8]) was 0.03 µM; on SIRT2 [6] (setting [14]), less than 1 µM; at SIRT1 [7] (setting [11]) it was less than 1 µM; on SIRT1 [7] (setting [15]), 0.056 µM.

With `CC(C)(C)C(=O)NCCC1CCN(c2nccc3cc(C(N)=O)sc23)CC1` [Compound 38, 7-(4-(2-pivalamidoethyl)piperidin-1-yl)thieno[2,3-c]pyridine-2-carboxamide], in the data set with SIRT1/2/3 (compared to Compound 28, range across the three enzymes), the “fold reduction in SIRT1/2/3 potency” value is listed as 30-63 fold. Besides, the IC50 is 0.3 µM at SIRT2 [6] (setting [8]); less than 1 µM on SIRT2 [6] (setting [9]); less than 1 µM against SIRT1 [7] (setting [11]); 0.49 µM at SIRT1 [7] (setting [15]); 1 to 10 µM on SIRT3 (setting [12]); 2.1 µM on SIRT3 (setting [16]).
